This note sets out measurements from patent US20100242125A1, “METHODS FOR CORRECTING MITOTIC SPINDLE DEFECTS AND OPTIMIZING PREIMPLANTATION EMBRYONIC DEVELOPMENTAL RATES ASSOCIATED WITH SOMATIC CELL NUCLEAR TRANSFER IN ANIMALS” (priority 2003, published 2010).

SMILES strings stand for the structures.

In the assay the test system is NHP oocytes (SCC-intact) and rhesus enucleated cytoplasts. Put plainly: Taxol-induced microtubule recruitment; immunocytochemistry of HSET, NuMA, microtubules and DNA. Format: cell-based, rhesus (nonhuman primate). The note with it: 10 μM paclitaxel. An excerpt:
FIGS. 9A-9C show microtubule patterns (green) observed in rhesus cytoplast after enucleation (FIG. 9A) or following artificial activation at 24 (FIG. 9B) or at 48 hrs (FIG. 9C) post-ionomycin/DMAP. Following enucleation, no assembled cytoplasmic microtubules (FIG. 9A: green) are observed. After activation, abundant disarrayed microtubules (FIG. 9B: green) assemble in the DNA-less cytoplast. Rarely, a microtubule structure resembling a bipolar spindle (FIG. 9C: green) assembles in the cytoplasm. The insets of FIGS. 9A-9C show DNA imaging confirming successful removal of the SCC. […] Second meiotic chromosomes, are blue. FIGS. 9H-9J show a rhesus enucleated cytoplast treated for 30 minutes with 10 μM paclitaxel prior to fixation and detection of DNA (H, blue), microtubules (I, red), and HSET (J, green). The assembled cytoplasmic microtubule bundles are not labeled by HSET antibody. FIGS. 9A-9C and 9E are double-labeled images for microtubules (green) and DNA (blue). FIGS. 9D, 9F, and 9G are triple-labeled images for HSET (green), microtubules (red) and DNA (blue). FIGS. 9H-9J are single-labeled images for DNA (blue), microtubules (red), and HSET (green). Bars represent 10 μm.
FIGS. 10D and 10E show NuMA detection in the somatic cell nuclei of cumulus (FIG. 10D: green) and rhesus fibroblast cells (FIG. 10E: green; red, microtubules). […] NuMA (green) is strongly detected in the decondensed male pronucleus (MPn), but diminished in the unsuccessful fibroblast cell (arrowhead) attached at the oocyte surface. In the upper inset of FIG. 10F, red depicts microtubules while blue depicts DNA. In the lower inset of FIG. 10F, the sperm centrosome organizes a microtubule astral array (arrow) near the decondensed male pronucleus. […] NuMA (green) is found at both poles on the intact metaphase-II spindle (red) with aligned chromosomes (blue) as well as at the base of the condensed sperm head (blue, arrow). However, NuMA (green) is missing from the disorganized multipolar NT spindle microtubules (red) assembling around the scattered somatic cell chromosomes (blue). […] NuMA (green) is detected at the poles in both the NT spindle (lower arrow; red, microtubules; blue, DNA) and the intact second meiotic metaphase spindle (upper arrow; red, microtubules; blue, DNA). […]
Imaging. […] NuMA, HSET (human spleen embryonic tissue and testis), and Eg5 were detected using rabbit polyclonal antibodies as described in Mountain, 147 J. CELL BIOL. […] Primary antibodies were detected using Alexa secondary antibodies (Alexa-546 goat anti-mouse IgG; Alexa-488 goat anti-rabbit IgG; Molecular Probes, Eugene, Oreg.). […] DNA was fluorescently detected with 10 μg/ml Hoechst 33342 (Sigma) and 1 μM Toto-3 (Molecular Probes) added to the penultimate rinse. […]

As for `CC(=O)O[C@H]1C(=O)[C@@]2(C)[C@H]([C@H](OC(=O)c3ccccc3)[C@]3(O)C[C@H](OC(=O)[C@H](O)[C@@H](NC(=O)c4ccccc4)c4ccccc4)C(C)=C1C3(C)C)[C@]1(OC(C)=O)CO[C@@H]1C[C@@H]2O` [Paclitaxel], the NuMA localization result (SCC-intact mature NHP oocyte, 20 minutes (FIG. 10C)) was “NuMA localization at disorganized spindle poles”. For the same compound, under “enucleated cytoplast lacking the SCC, 30 minutes (FIG. 9I)”, the cytoplasmic microtubule assembly entry is on record as “numerous cytoplasmic microtubule bundles assembled in the cytoplasm”. Also, for the setting “enucleated cytoplast lacking the SCC, 30 minutes (FIG. 9J)”, the “HSET detection at cytoplasmic microtubule bundles” value is recorded as “without HSET protein detection”. In addition, the HSET protein localization entry (intact mature oocyte, 30 minutes (FIG. 9G)) was “enhanced HSET protein only at the second meiotic spindle poles”.
